According to ChEMBL document CHEMBL1201862, “PubChem BioAssay data set” (2004):
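Exposure lasted 48 hours, with cells grown in 96-well plates and compounds tested at five concentrations. GI50: concentration for 50% inhibition of growth.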 The source made the active and inactive calls. No stated cut-off is given here; in the data, active = GI50 up to about 1.1 µM and inactive = higher.

Key:
Experiment in all cases: growth of human tumour cells (NCI), 48 h
[1] = system: 786-0
[2] = system: CCRF-CEM
[3] = system: HCC 2998
[4] = system: HL-60
[5] = system: HOP-62
[6] = system: KM12
[7] = system: LOX IMVI
[8] = system: MCF7
[9] = system: MOLT-4
[10] = system: NCI-H226
[11] = system: NCI-H23
[12] = system: OVCAR-8
[13] = system: PC-3
[14] = system: SF-295
[15] = system: SF-539
[16] = system: SK-OV-3
[17] = system: SN12C
[18] = system: SNB-75
[19] = system: SW-620
[20] = system: UACC-257

Structure (SMILES) | GI50 [1] | GI50 [2] | GI50 [3] | GI50 [4] | GI50 [5] | GI50 [6] | GI50 [7] | GI50 [8] | GI50 [9] | GI50 [10] | GI50 [11] | GI50 [12] | GI50 [13] | GI50 [14] | GI50 [15] | GI50 [16] | GI50 [17] | GI50 [18] | GI50 [19] | GI50 [20]
CCOC(=O)c1cc(C2CCN(CC(C)CC)C2=S)c(-c2cc(C)no2)[nH]1 (stereo not given) | > 100 µM (inactive) | > 100 µM (inactive) | > 100 µM (inactive) | 35 µM (inactive) | > 100 µM (inactive) | 49.2 µM (inactive) | 41.8 µM (inactive) | 89.3 µM (inactive) | 44.1 µM (inactive) | 55.3 µM (inactive) | > 100 µM (inactive) | 68.4 µM (inactive) | 41.6 µM (inactive) | > 100 µM (inactive) | > 100 µM (inactive) | > 100 µM (inactive) | > 100 µM (inactive) | 57.9 µM (inactive) | > 100 µM (inactive) | > 100 µM (inactive)
CCCOc1cc2c(cc1O)CC[C@@H]1[C@@H]2CC[C@]2(C)[C@@H](O)CC[C@@H]12 | 3.63 µM (inactive) | 1.56 µM (inactive) | 4.56 µM (inactive) | 0.637 µM (active) | 2.21 µM (inactive) | 4.15 µM (inactive) | 2.74 µM (inactive) | 2.18 µM (inactive) | 0.946 µM (active) | 5.97 µM (inactive) | 3.37 µM (inactive) | 4.98 µM (inactive) | 4.76 µM (inactive) | 2.76 µM (inactive) | 1.48 µM (inactive) | 3.04 µM (inactive) | 4.97 µM (inactive) | 2.36 µM (inactive) | 1 µM (active) | 5.04 µM (inactive)
COc1ccc2c(c1)C(=O)C1CCC(=O)N1C2c1ccc2c(c1)OCO2 (stereo not given) | 24.8 µM (inactive) | 3.09 µM (inactive) | 14.8 µM (inactive) | 2.79 µM (inactive) | 18.6 µM (inactive) | 8.87 µM (inactive) | 9.59 µM (inactive) | 4.83 µM (inactive) | 2.74 µM (inactive) | 15.7 µM (inactive) | 15.1 µM (inactive) | 18.1 µM (inactive) | 4.2 µM (inactive) | 15.9 µM (inactive) | 23 µM (inactive) | 26.3 µM (inactive) | 12.1 µM (inactive) | 14.9 µM (inactive) | 5.36 µM (inactive) | 16.9 µM (inactive)
Cc1sc2nc(N(C)C)oc(=O)c2c1C | > 100 µM (inactive) | 94.6 µM (inactive) | > 100 µM (inactive) | 37.9 µM (inactive) | 51.5 µM (inactive) | > 100 µM (inactive) | > 100 µM (inactive) | > 100 µM (inactive) | 73.8 µM (inactive) | > 100 µM (inactive) | > 100 µM (inactive) | 73.5 µM (inactive) | 63.1 µM (inactive) | 61.2 µM (inactive) | > 100 µM (inactive) | > 100 µM (inactive) | 86.1 µM (inactive) | 34.5 µM (inactive) | > 100 µM (inactive) | > 100 µM (inactive)
